Patent publication US8211886B2, “Thiadiazinone derivatives” (Merck Patent Gesellschaft mit beschrankter Haftung, priority 2007, dated 2012)

Target: T1, Met kinase (Homo sapiens, UniProt P08581)
T1 construct: 6His (N); purchased Upstate 14-526; host or cells: Sf21 insect cells (S. frugiperda), baculovirus
Test: Met kinase inhibition (enzyme assay), flashplate method
Assay type: biochemical
Conditions: 33P-ATP, substrate pAGLT, 3 hrs at room temperature
Text: According to the manufacturer's data (Met, active, upstate, catalogue No. 14-526), Met kinase is expressed for the purposes of protein production in insect cells (Sf21; S. frugiperda) and subsequent affinity-chromatographic purification as “N-terminal 6His-tagged” recombinant human protein in a baculovirus expression vector.
Flashplate Method (Met Kinase)
The test plates used are 96-well Flashplate^R microtitre plates from Perkin Elmer (Cat. No. SMP200). The components of the kinase reaction described below are pipetted into the assay plate. The Met kinase and the substrate poly Ala-Glu-Lys-Tyr, (pAGLT, 6:2:5:1), are incubated for 3 hrs at room temperature with radioactively labelled ^33P-ATP in the presence and absence of test substances in a total volume of 100 μl. The reaction is terminated using 150 μl of a 60 mM EDTA solution. After incubation for a further 30 min at room temperature, the supernatants are filtered off with suction, and the wells are washed three times with 200 μl of 0.9% NaCl solution each time. The measurement of the bound radioactivity is carried out by means of a scintillation measuring instrument (Topcount NXT, Perkin-Elmer).
The full value used is the inhibitor-free kinase reaction. This should be approximately in the range 6000-9000 cpm. The pharmacological zero value used is staurosporin in a final concentration of 0.1 mM. The inhibitory values (IC50) are determined using the RS1_MTS program.
Kinase reaction conditions per well: • 30 μl of assay buffer • 10 μl of substance to be tested in assay buffer with 10% of DMSO • 10 μl of ATP (final concentration 1 μM cold, 0.35 μCi of ^33P-ATP) • 50 μl of Met kinase/substrate mixture in assay buffer; • (10 ng of enzyme/well, 50 ng of pAGLT/well)
Solutions used: • Assay buffer: • 50 mM HEPES • 3 mM magnesium chloride • 3 μM sodium orthovanadate • 3 mM manganese(II) chloride • 1 mM dithiothreitol (DTT) • pH=7.5 (to be set using sodium hydroxide) • Stop solution: • 60 mM Titriplex III (EDTA) • ^33P-ATP: Perkin-Elmer; • Met kinase: Upstate, Cat. No. 14-526, Stock 1 μg/10 μl; spec. activity 954 U/mg; • Poly-Ala-Glu-Lys-Tyr, 6:2:5:1: Sigma Cat. No. P1152 In-vivo Tests (FIG. 1/1)

T1 sequence (P08581 25-1390): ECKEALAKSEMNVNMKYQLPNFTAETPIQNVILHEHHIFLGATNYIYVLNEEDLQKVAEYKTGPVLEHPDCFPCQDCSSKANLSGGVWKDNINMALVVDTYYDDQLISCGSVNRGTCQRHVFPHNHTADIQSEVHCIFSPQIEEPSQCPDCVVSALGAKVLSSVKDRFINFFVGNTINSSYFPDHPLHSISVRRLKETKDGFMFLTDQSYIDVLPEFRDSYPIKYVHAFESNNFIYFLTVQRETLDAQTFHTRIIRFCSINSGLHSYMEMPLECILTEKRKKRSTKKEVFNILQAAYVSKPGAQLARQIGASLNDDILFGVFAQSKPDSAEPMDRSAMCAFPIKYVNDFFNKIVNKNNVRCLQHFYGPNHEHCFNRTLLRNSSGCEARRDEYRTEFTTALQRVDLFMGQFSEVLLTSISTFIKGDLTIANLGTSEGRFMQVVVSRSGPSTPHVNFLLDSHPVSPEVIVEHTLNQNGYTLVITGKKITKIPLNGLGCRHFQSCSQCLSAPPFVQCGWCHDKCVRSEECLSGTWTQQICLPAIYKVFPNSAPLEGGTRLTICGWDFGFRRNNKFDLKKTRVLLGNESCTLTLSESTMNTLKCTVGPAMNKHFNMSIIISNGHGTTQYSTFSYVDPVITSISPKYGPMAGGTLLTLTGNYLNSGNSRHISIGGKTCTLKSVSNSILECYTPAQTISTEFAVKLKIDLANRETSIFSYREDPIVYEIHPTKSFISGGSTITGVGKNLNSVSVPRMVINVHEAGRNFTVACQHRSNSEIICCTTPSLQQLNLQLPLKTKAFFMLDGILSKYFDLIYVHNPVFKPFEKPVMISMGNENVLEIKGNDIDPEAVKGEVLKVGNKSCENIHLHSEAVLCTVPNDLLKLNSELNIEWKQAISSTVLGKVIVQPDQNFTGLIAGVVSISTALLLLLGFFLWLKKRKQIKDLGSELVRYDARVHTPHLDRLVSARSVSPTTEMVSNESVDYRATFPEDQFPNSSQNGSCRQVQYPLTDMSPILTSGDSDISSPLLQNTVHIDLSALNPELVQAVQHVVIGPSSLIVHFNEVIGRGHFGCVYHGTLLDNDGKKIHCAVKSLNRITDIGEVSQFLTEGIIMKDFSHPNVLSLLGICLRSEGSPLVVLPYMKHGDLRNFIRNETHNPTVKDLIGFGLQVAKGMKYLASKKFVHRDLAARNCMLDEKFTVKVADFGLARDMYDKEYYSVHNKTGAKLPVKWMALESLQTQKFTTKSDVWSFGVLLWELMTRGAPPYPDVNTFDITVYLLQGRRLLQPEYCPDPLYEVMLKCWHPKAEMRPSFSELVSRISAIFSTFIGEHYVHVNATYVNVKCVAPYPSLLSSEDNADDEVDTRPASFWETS

IC50 [µM] | Structure (SMILES)
0.01 to 1 | Cc1cnc(-c2cccc(CN3N=C(c4nccs4)CSC3=O)c2)nc1 [Compound A1, 3-[3-(5-methylpyrimidin-2-yl)benzyl]-5-thiazol-2-yl-3,6-dihydro-1,3,4-thiadiazin-2-one]
0.01 to 1 | CN(C)/C=N/c1cnc(-c2cccc(CN3N=C(c4nccs4)CSC3=O)c2)nc1 [Compound A2, N,N-Dimethyl-N′-{2-[3-(2-oxo-5-thiazol-2-yl-6H-1,3,4-thiadiazin-3-ylmethyl)phenyl]pyrimidin-5-yl}formamidine]
1 to 10 | Cc1nc(-c2cccc(CN3N=C(c4nccs4)CSC3=O)c2)no1 [Compound A3, 3-[3-(5-Methyl-1,2,4-oxadiazol-3-yl)benzyl]-5-thiazol-2-yl-3,6-dihydro-1,3,4-thiadiazin-2-one]
0.01 to 1 | Nc1cnc(-c2cccc(CN3N=C(c4cc(F)cc(F)c4)CSC3=O)c2)nc1 [Compound A4, 3-[3-(5-aminopyrimidin-2-yl)benzyl]-5-(3,5-difluorophenyl)-3,6-dihydro-1,3,4-thiadiazin-2-one]
0.01 to 1 | COc1ccc(C2=NN(Cc3cccc(-c4ncc(N)cn4)c3)C(=O)SC2)cc1OC [Compound A5, 3-[3-(5-Aminopyrimidin-2-yl)benzyl]-5-(3,4-dimethoxyphenyl)-3,6-dihydro-1,3,4-thiadiazin-2-one]
0.01 to 1 | N#Cc1ccc(C2=NN(Cc3cccc(-c4ncc(N)cn4)c3)C(=O)SC2)cc1 [Compound A6, 4-{3-[3-(5-Aminopyrimidin-2-yl)benzyl]-2-oxo-3,6-dihydro-2H-1,3,4-thiadiazin-5-yl}benzonitrile]
0.01 to 1 | CN(C)CCCOc1cnc(-c2cccc(CN3N=C(c4nccs4)CSC3=O)c2)nc1 [Compound A7, 3-{3-[5-(3-Dimethylaminopropoxy)pyrimidin-2-yl]benzyl}-5-thiazol-2-yl-3,6-dihydro-1,3,4-thiadiazin-2-one]
0.01 to 1 | CN(C)CCCOc1cnc(-c2cccc(CN3N=C(c4cc(F)cc(F)c4)CSC3=O)c2)nc1 [Compound A8, 5-(3,5-Difluorophenyl)-3-{3-[5-(3-dimethylamino-propoxy)pyrimidin-2-yl]benzyl}-3,6-dihydro-1,3,4-thiadiazin-2-one]
0.01 to 1 | CN(C)CCCOc1cnc(-c2cccc(CN3N=C(c4ccc(C#N)cc4)CSC3=O)c2)nc1 [Compound A9, 4-(3-{3-[5-(3-Dimethylaminopropoxy)pyrimidin-2-yl]-benzyl}-2-oxo-3,6-dihydro-2H-1,3,4-thiadiazin-5-yl)-benzonitrile]
0.01 to 1 | Nc1cnc(-c2cccc(CN3N=C(c4nccs4)CSC3=O)c2)nc1 [Compound A10, 3-[3-(5-Aminopyrimidin-2-yl)benzyl]-5-thiazol-2-yl-3,6-dihydro-1,3,4-thiadiazin-2-one]
